The subject of series [1] is advanced solid tumors. Kind of series: 4-iodo-3-nitrobenzamide in combination with cytotoxic chemotherapeutic agents, safety and best response. The class given is in vivo, human. How it is done: 42 subjects (advanced solid tumors) were treated with 4-iodo-3-nitrobenzamide in combination with cytotoxic chemotherapeutics agents (topotecan, temozolomide, gemcitabine, or carboplatin/taxol) at 4-iodo-3-nitrobenzamide doses of 1.1, 2.0, 2.8, 4.0 and 5.6 mg/kg.

Series [2] concerns advanced solid tumors. The class given is in vivo, human. The protocol:
Phase 1: 4-iodo-3-nitrobenzamide is administered intravenously twice weekly (days 1 and 4 of each week) for 3 weeks, followed by a one week 4-iodo-3-nitrobenzamide treatment-free period per one 28-day cycle. Cycle one (day 1 through day 28) is defined as the Safety Phase of the study during which DLTs is assessed and the MTD is determined. The remainder of the study is termed the Maintenance Phase. A subject may participate in this study until he/she experiences a drug intolerance or disease progression. […] For non-measurable disease, best medical practices are used to determine disease progression.
In cohort A (starting dose), a single subject receives 4-iodo-3-nitrobenzamide twice weekly at a dose level of 0.5 mg/kg based on weight measured at screening. If this subject experiences a grade 2 toxicity or higher, then 3 additional subjects would be enrolled in this cohort (only 2 additional subjects would be enrolled in this cohort if the initial subject receives at least 80% of the planned cycle 1 doses). If no additional subjects dosed in this cohort experience a DLT, then dose escalation would occur as below. If no DLT occurs in the initial subject, dose escalation would occur as below. The safety review group has the ability to recommend dose escalation (opening of a new cohort), without expansion with additional subjects, for cases of grade 2 toxicity seen in a single subject that are deemed not to be clinically relevant and/or study treatment-related. Dose Escalation Prior to Grade 2 Toxicity (Potential Cohorts B-J): Until a subject experiences a grade 2 toxicity or higher, one subject would be initially enrolled in all subsequent cohorts at planned 100% dose level increases, with possible cohort expansion as described for cohort A. Safety data are reviewed after 6 doses of 4-iodo-3-nitrobenzamide, and a decision to escalate to the next cohort would be made if no subject experiences a grade 2 toxicity or higher. […]

Series [3] has as its system cells not expressing Bcr-Ab1. The conditions noted are these: background statement; cited from earlier work.
In the next series the test system is Bcr-ab1. Conditions: background statement; read-out: IC50, inhibition of Bcr-ab1 phosphorylation; cited from earlier work.
Series [4] relates to panel of 63 other kinases, including native c-Ab1. The conditions noted are these: background statement; cited from earlier work.

One may read the IC50 as the point on the concentration scale where inhibition reaches its midpoint.

Structures are written as SMILES.

Regarding `NC(=O)c1ccc(I)c([N+](=O)[O-])c1` [4-iodo-3-nitrobenzamide], in the series with advanced solid tumors [1] (42 subjects, advanced solid tumors, with topotecan, temozolomide, gemcitabine or carboplatin/taxol, BA 1.1, 2.0, 2.8, 4.0 and 5.6 mg/kg, preliminary safety data), the tolerability result is “well tolerated at all dose levels tested”. Also, the “relation of serious adverse events to study drug” value with advanced solid tumors [1] (42 subjects, combination with cytotoxic agents, judged by study investigators) is listed as “deemed not related to study drug”. In addition, in the series on advanced solid tumors [1] (either study (monotherapy, 24 subjects; combination with cytotoxic agents, 42 subjects)), the “SAEs attributed to drug” value is on record as “no SAEs attributed to 4-iodo-3-nitrobenzamide in either study”. In the series with advanced solid tumors [1] (safety data of both studies), the “additional toxicities when combined with standard cytotoxic chemotherapy” value was “would not cause any additional toxicities” and the “potentiation of known toxicities of standard chemotherapeutic agents” value was “no evidence that 4-iodo-3-nitrobenzamide would potentiate any known toxicities”. The “best response measured to date” value in the series with advanced solid tumors [2] (24 subjects, monotherapy 0.5-8.0 mg/kg) is “stable disease present through at least cycle 2 of the study for six subjects”. Besides, the “dose limiting toxicities (DLTs)” value with advanced solid tumors [2] (in vivo) is “no dose limiting toxicities (DLTs) were observed at any dose level”. The “cycles of treatment completed with continued stable disease” value with advanced solid tumors [2] (one subject, monotherapy) is 9 cycles.

In the case of `NC(=O)c1cccc(-c2cc(Nc3ccc(OC(F)(F)F)cc3)ncn2)c1` [GNF-2], the “toxicity towards cells not expressing Bcr-Ab1” value in series [3] was “complete lack of toxicity”. In addition, the IC50 with Bcr-ab1 was 267 nM. Moreover, in series [4], the “inhibition of a panel of 63 other kinases, including native c-Ab1” value is “does not inhibit”.

The values above are taken from patent US20130274281A1, “METHODS OF TREATING METASTATIC BREAST CANCER WITH 4-IODO-3-NITROBENZAMIDE AND IRINOTECAN” (BiPar Sciences, Inc., priority 2010, published 2013).
